Reference: patent publication US20240228504A1, “SUBSTITUTED TRICYCLIC AMIDES, ANALOGUES THEREOF, AND METHODS USING SAME” (Arbutus Biopharma Corporation, priority 2020, published 2024)

system: HBV rcDNA in HepDE19 cells; experiment: HepDE19 assay with bDNA quantitation of HBV rcDNA; assay type: cell-based, hepatitis B virus; conditions: HepDE19 assay, inhibition of rcDNA formation, bDNA quantitation; read-out: DE-19bDNA EC50

| Compound | EC50 [µM] |
| --- | --- |
| CN(C(=O)c1cc2c(C(F)F)cc(F)cc2[nH]1)C1CNCc2[nH]c(=O)c3cc(F)c(F)cc3c21 (single isomer, unassigned) [Compound 257, N-(8,9-Difluoro-6-oxo-1,2,3,4,5,6-hexahydrobenzo[c][1,7]naphthyridin-1-yl)-4-(difluoromethyl)-6-fluoro-N-methyl-1H-indole-2-carboxamide] | 2.2 |
| CN(C(=O)c1cc2ccccc2[nH]1)[C@@H]1CCC(O)c2[nH]c(=O)c3cc(F)c(F)cc3c21 (single isomer, unassigned) [Compound 504] | 0.58 |
| CN(C(=O)c1cc2c([nH]1)CCC(F)(F)C2)C1COCc2[nH]c(=O)c3cc(F)c(F)cc3c21 (single isomer, unassigned) [Compound 47, N-(8,9-Difluoro-6-oxo-1,4,5,6-tetrahydro-2H-pyrano[3,4-c]isoquinolin-1-yl)-5,5-difluoro-N-methyl-4,5,6,7-tetrahydro-1H-indole-2-carboxamide] | 0.02 |
| CN(C(=O)c1cc2cccc(C(F)F)n2c1)C1CNCc2[nH]c(=O)c3cc(F)c(F)cc3c21 (single isomer, unassigned) [Compound 432, N-(8,9-Difluoro-6-oxo-1,2,3,4,5,6-hexahydrobenzo[c][1,7]naphthyridin-1-yl)-5-(difluoromethyl)-N-methylindolizine-2-carboxamide] | 23 |
| CN(C(=O)c1ccc2c(c1)CCC2)C1CNCc2[nH]c(=O)c3cc(F)c(F)cc3c21 (single isomer, unassigned) [Compound 471, N-(8,9-difluoro-6-oxo-1,2,3,4,5,6-hexahydrobenzo[c][1,7]naphthyridin-1-yl)-N-methyl-2,3-dihydro-1H-indene-5-carboxamide] | 8.7 |
| CN(C(=O)c1ccc2c(c1)CCC2)C1COCc2[nH]c(=O)c3cc(F)ccc3c21 (single isomer, unassigned) [Compound 443, N-(8-Fluoro-6-oxo-1,4,5,6-tetrahydro-2H-pyrano[3,4-c]isoquinolin-1-yl)-N-methyl-2,3-dihydro-1H-indene-5-carboxamide] | 0.64 |
| CN(C(=O)c1cc2sc(Cl)cc2[nH]1)C1CNCc2[nH]c(=O)c3cc(F)c(F)cc3c21 (single isomer, unassigned) [Compound 453, 2-chloro-N-(8,9-difluoro-6-oxo-1,2,3,4,5,6-hexahydrobenzo[c][1,7]naphthyridin-1-yl)-N-methyl-4H-thieno[3,2-b]pyrrole-5-carboxamide] | 2.2 |
| CN(C(=O)C1Cc2cc(F)ccc2N1)C1COCc2[nH]c(=O)c3cc(F)c(F)cc3c21 (single isomer, unassigned) [Compound 8, N-(8,9-Difluoro-6-oxo-1,4,5,6-tetrahydro-2H-pyrano[3,4-c]isoquinolin-1-yl)-5-fluoro-N-methylindoline-2-carboxamide] | 1.4 |
| CN(C(=O)c1cc2c(C#N)cc(F)cc2[nH]1)C1COCc2[nH]c(=O)c3cc(F)ccc3c21 (single isomer, unassigned) [Compound 383, 4-Cyano-6-fluoro-N-(8-fluoro-6-oxo-1,4,5,6-tetrahydro-2H-pyrano[3,4-c]isoquinolin-1-yl)-N-methyl-1H-indole-2-carboxamide] | 0.04 |
| CN(C(=O)c1cc2cc(F)c(C(F)F)cc2[nH]1)C1CNCc2[nH]c(=O)c3cc(F)c(F)cc3c21 (single isomer, unassigned) [Compound 221, N-(8,9-Difluoro-6-oxo-1,2,3,4,5,6-hexahydrobenzo[c][1,7]naphthyridin-1-yl)-6-(difluoromethyl)-5-fluoro-N-methyl-1H-indole-2-carboxamide] | 0.03 |

same assay, conditions: Hepatitis B virus, HepDE19, HepDE19 assay, inhibition of rcDNA formation, bDNA quantitation; read-out: DE-19bDNA EC50

| Compound | EC50 [µM] |
| --- | --- |
| CN(C(=O)c1ccc(Oc2cccc(F)c2)cc1)[C@@H]1COCc2[nH]c(=O)c3cc(F)c(F)cc3c21 [Compound 237, (S)-N-(8,9-Difluoro-6-oxo-1,4,5,6-tetrahydro-2H-pyrano[3,4-c]isoquinolin-1-yl)-4-(3-fluorophenoxy)-N-methylbenzamide] | 6.9 |
| CN(C(=O)c1ccc(-c2cccc(F)c2)cc1)[C@@H]1COCc2[nH]c(=O)c3cc(F)c(F)cc3c21 [Compound 283, (S)-N-(8,9-Difluoro-6-oxo-1,4,5,6-tetrahydro-2H-pyrano[3,4-c]isoquinolin-1-yl)-3′-fluoro-N-methyl-[1,1′-biphenyl]-4-carboxamide] | 4.7 |
| CN(C(=O)c1cc(F)c(Cl)c(F)c1)[C@@H]1COCc2[nH]c(=O)c3cc(F)c(F)cc3c21 [Compound 173, 4-Chloro-N-(8,9-difluoro-6-oxo-2,4,5,6-tetrahydro-1H-pyrano[3,4-c]isoquinolin-1-yl)-3,5-difluoro-N-methylbenzamide] | 0.01 |
| CN(C(=O)c1cc2cc(F)c(C(F)F)cc2[nH]1)[C@@H]1COCc2[nH]c(=O)c3cc(F)c(F)cc3c21 [Compound 212, (S)-N-(8,9-Difluoro-6-oxo-1,4,5,6-tetrahydro-2H-pyrano[3,4-c]isoquinolin-1-yl)-6-(difluoromethyl)-5-fluoro-N-methyl-1H-indole-2-carboxamide] | 0.01 |
| CN(C(=O)[C@@](C)(O)c1ccccc1)[C@@H]1COCc2[nH]c(=O)c3cc(F)c(F)cc3c21 [Compound 93, (S)-N-((S)-8,9-Difluoro-6-oxo-1,4,5,6-tetrahydro-2H-pyrano[3,4-c]isoquinolin-1-yl)-2-hydroxy-N-methyl-2-phenylpropanamide] | 12 |
| CN(C(=O)c1cnc(C(F)(F)F)c(Br)c1)[C@@H]1COCc2[nH]c(=O)c3cc(F)c(F)cc3c21 [Compound 365, (S)-5-Bromo-N-(8,9-difluoro-6-oxo-1,4,5,6-tetrahydro-2H-pyrano[3,4-c]isoquinolin-1-yl)-N-methyl-6-(trifluoromethyl)nicotinamide] | 0.06 |
| CN(C(=O)c1cc2cc(F)ccn2c1)[C@@H]1COCc2[nH]c(=O)c3cc(F)c(F)cc3c21 [Compound 231, (S)-N-(8,9-Difluoro-6-oxo-1,4,5,6-tetrahydro-2H-pyrano[3,4-c]isoquinolin-1-yl)-7-fluoro-N-methylindolizine-2-carboxamide] | 0.01 |
| COc1cccc2[nH]c(C(=O)N(C)[C@@H]3COCc4[nH]c(=O)c5cc(F)c(F)cc5c43)cc12 [Compound 329, (S)-N-(8,9-Difluoro-6-oxo-1,4,5,6-tetrahydro-2H-pyrano[3,4-c]isoquinolin-1-yl)-4-methoxy-N-methyl-1H-indole-2-carboxamide] | 0.26 |
| CN(C(=O)c1cc2sc(Cl)cc2[nH]1)[C@@H]1COC(O)c2[nH]c(=O)c3cc(F)c(F)cc3c21 (stereo partly drawn) [Compound 487, 2-Chloro-N-((1S)-8,9-difluoro-4-hydroxy-6-oxo-1,4,5,6-tetrahydro-2H-pyrano[3,4-c]isoquinolin-1-yl)-N-methyl-4H-thieno[3,2-b]pyrrole-5-carboxamide] | 0.02 |
| CN(C(=O)c1ccc2scnc2c1)C1CNCc2[nH]c(=O)c3cc(F)c(F)cc3c21 (single isomer, unassigned) [Compound 463, N-(8,9-difluoro-6-oxo-1,2,3,4,5,6-hexahydrobenzo[c][1,7]naphthyridin-1-yl)-N-methylbenzo[d]thiazole-5-carboxamide] | 2 |
| CN(C(=O)c1ccc2cn[nH]c2c1)C1COCc2[nH]c(=O)c3cc(F)ccc3c21 (single isomer, unassigned) [Compound 469, N-(8-fluoro-6-oxo-1,4,5,6-tetrahydro-2H-pyrano[3,4-c]isoquinolin-1-yl)-N-methyl-1H-indazole-6-carboxamide] | 2.2 |
| CN(C(=O)C1CN(c2cscc2Br)C1)[C@@H]1COCc2[nH]c(=O)c3cc(F)c(F)cc3c21 [Compound 284, (S)-1-(4-Bromothiophen-3-yl)-N-(8,9-difluoro-6-oxo-1,4,5,6-tetrahydro-2H-pyrano[3,4-c]isoquinolin-1-yl)-N-methylazetidine-3-carboxamide] | 0.05 |
| CN(C(=O)c1cccc(-c2ccccc2)c1)[C@@H]1COCc2[nH]c(=O)c3cc(F)c(F)cc3c21 [Compound 288, (S)-N-(8,9-Difluoro-6-oxo-1,4,5,6-tetrahydro-2H-pyrano[3,4-c]isoquinolin-1-yl)-N-methyl-[1,1′-biphenyl]-3-carboxamide] | 11.3 |
| CN(C(=O)c1cnn(C)c1)[C@@H]1COCc2[nH]c(=O)c3cc(F)c(F)cc3c21 [Compound 188, (S)-N-(8,9-Difluoro-6-oxo-1,4,5,6-tetrahydro-2H-pyrano[3,4-c]isoquinolin-1-yl)-N,1-dimethyl-1H-pyrazole-4-carboxamide] | 18.3 |
| Cc1ccc2[nH]c(C(=O)N(C)[C@@H]3COCc4[nH]c(=O)c5cc(F)c(F)cc5c43)cc2c1 [Compound 326, (S)-N-(8,9-Difluoro-6-oxo-1,4,5,6-tetrahydro-2H-pyrano[3,4-c]isoquinolin-1-yl)-N,5-dimethyl-1H-indole-2-carboxamide] | 2.5 |
| CN(C(=O)c1cc(F)cc(Oc2ccccc2)c1)[C@@H]1COCc2[nH]c(=O)c3cc(F)c(F)cc3c21 [Compound 303, (S)-N-(8,9-Difluoro-6-oxo-1,4,5,6-tetrahydro-2H-pyrano[3,4-c]isoquinolin-1-yl)-3-fluoro-N-methyl-5-phenoxybenzamide] | 6.7 |
| CN(C(=O)c1cc2ccncc2[nH]1)[C@@H]1COCc2[nH]c(=O)c3cc(F)c(F)cc3c21 [Compound 307, (S)-N-(8,9-Difluoro-6-oxo-1,4,5,6-tetrahydro-2H-pyrano[3,4-c]isoquinolin-1-yl)-N-methyl-1H-pyrrolo[2,3-c]pyridine-2-carboxamide] | 0.2 |
| CN(C(=O)c1ccc2c(c1)c(Cl)nn2C(F)F)[C@@H]1COCc2[nH]c(=O)c3cc(F)c(F)cc3c21 [Compound 359, (S)-3-chloro-N-(8,9-difluoro-6-oxo-1,4,5,6-tetrahydro-2H-pyrano[3,4-c]isoquinolin-1-yl)-1-(difluoromethyl)-N-methyl-1H-indazole-5-carboxamide] | 0.01 |
| CN(C(=O)c1cc(C(F)(F)F)n[nH]1)[C@@H]1COCc2[nH]c(=O)c3cc(F)c(F)cc3c21 [Compound 125, (S)-N-(8,9-Difluoro-6-oxo-1,4,5,6-tetrahydro-2H-pyrano[3,4-c]isoquinolin-1-yl)-N-methyl-3-(trifluoromethyl)-1H-pyrazole-5-carboxamide] | 0.15 |
